Reference: US20090036380A1, “Composition And Method For Brain Tumor Therapy” (Yeda Research and Development Co., Ltd., priority 2006, published 2009)

How the values were obtained:
Hek cells = test: Viability (XTT) and morphology of Hek cells co-transfected with Karet and receptors; format: cell-based, human; details: 24 hours after transfection; for cell morphology: microscope
Experimental: FIGS. 21a-q are photomicrographs of Hek cells 24 hours after transfection with karet, Trk receptors, EGFR and/or P75 constructs. […] FIG. 21a—cells transfected with TrkA and pcDNA3; FIG. 21b—TrkA and Karet; FIG. 21c—TrkA and Karet F217V; FIG. 21d—Karet and pcDNA4; FIG. 21e—Karet F217V and pcDNA4; FIG. 21f—TrIcA and pcDNA3; FIG. 21g—TrkB and pcDNA3; FIG. 21h—TrkC and pcDNA3; FIG. 21i—TrkA and Karet;
FIG. 21j—TrkB and Karet; FIG. 21k—TrkC and Karet; FIG. 21l—Karet and pcDNA3; FIG. 21m—TrkC (low concentration) and pcDNA3; FIG. 21n—EGFR-Flag and pcDNA3; FIG. 21o—p75 and pcDNA3; FIG. 21p—EGFR-Flag and Ha-Karet; FIG. 21q—p75 and Ha-Karet.
(§1) FIGS. 22a-b are histograms depicting the effect of co-transfection of Karet and TrkA on cell death in Hek (FIG. 22a) or NNR5 (FIG. 22b) cells. FIG. 22a—Hek cells were co-transfected with Karet or control vector and TrkA, TrkB and TrkC. Viability of the cells was measured 24 hours after transfection by XTT. *p<0.05; FIG. 22b—NNR5 cells were co-transfected with Karet or control vector and TrkA, TrkB and TrkC. Cells were analyzed by FACS 24 hours after transfection using the dead/live kit. ** p<0.001.
FIG. 23 is a histogram depicting the effect of co-transfection of EGFR and Karet on cell death in Hek cells. Hek cells were co-transfected with Karet or control vector and p75, EGFR and PTB. Viability of the cells was measured 24 hours after transfection by XTT. ** p<0.001.
Cell proliferation was evaluated using the Cell proliferation assay with XTT reagent (Cat. No. 20-300-1000), Biological Industries, Beth Haemek, Israel, according to manufacturer's instructions.
To test whether Karet is capable of inducing cell death in other cells such as human HEK or NNR5 cells, the cells were transfected with various receptors and Karet constructs and the effect on cell death was determined by microscopic observation of cell morphology and using cell viability assays, as follows.

NNR5 cells = test: Viability of NNR5 cells transfected with Karet constructs with or without TrkA; format: cell-based, rat
Experimental: FIG. 5f is a viable cell count histogram depicting that the pro-apoptotic effect of Karet is TrkA dependent. NNR5 cells were electroporated with GFP with or without TrkA construct, or Karet with or without TrkA. Cells were incubated for 12 hours after electroporation and results are presented as percent of control (NNR5 transfected with GFP only, mean±SD, n=4, * p<0.05).
FIGS. 20a-q are immunochemistry (FIGS. 20a-p) and FACS (FIG. 20q) analyses of myristylated constructs of Karet, PTB and the non-PTB domain in PC12 (FIGS. 20a-p) or NNR5 (FIG. 20q) cells. Myristylated constructs of Karet (FIGS. 20e-h), PTB (FIGS. 20i-l) and the non-PTB domain (FIGS. 20m-p) or non-myristylated construct of Karet (FIGS. 20a-d) were transfected to PC12 cells and immunochemistry of the expressed constructs was performed using HA-antibody (FIG. 20a), the PTB-antibody (FIGS. 20e, i and m) or Lamin (a nuclear membrane protein)-antibody (FIGS. 20b, f, j, and n). Merged images of the two-color immunocytochemistry are shown in FIG. 20d (for anti-Ha and anti-lamin antibodies) or FIGS. 20h l, and p (for anti-PTB and anti-lamin antibodies). Note the cytoplasmic expression of non-myristylated Karet (FIG. 20a) as compared to the nuclear membrane expression of lamin (FIG. 20b). […] NNR5 cells were transfected with pcDNA3, Ha Karet and TrkA, Myr-Karet, Myr-PTB or Myr-non PTB constructs and the effect on cell viability was determined using calcein (the dead/Live kit). […]
as §1, with “FIG. 22a—Hek cells were co-transfected with Karet or control vector and TrkA, TrkB and TrkC.” left out
Viability of cells was evaluated using the Live/dead viability/cytotoxicity kit (Cat. No. L-3224), Molecular Probes, Inc., Eugene, Oreg., USA, according to manufacturer's instructions.

COS cells = test: Viability of COS cells expressing Karet; format: cell-based
TrkB = target: T1, TrkB (Homo sapiens, UniProt Q16620); test: Co-immunoprecipitation of Ha Karet with TrkB in Hek cells; format: binding; details: co-transfected Hek cells
T1 construct: expressed in transfected cells; host or cells: Hek cells
Experimental: (§2) FIGS. 24a-d depict co IP of Ha Karet with TrkA, TrkB, TrkC, p75 from co-transfected Hek cells. Cells were co-transfected with Ha Karet or control vector and TrkA, TrkB, TrkC or p75. Cells were lysed with NP40, the HA-beads (beads conjugated to anti-HA antibody) were blocked with Hek lysate, and elution was done for 30 minutes at 37° C. Proteins from anti-HA-IP (FIGS. 24a and b) or from cell lysates without IP (FIGS. 24c and d) were subjected to Western blot analysis and the membranes were probed with anti pan trk (FIGS. 24a and c) or anti-p75 (FIGS. 24b and d) antibodies. Note the specific co-IP of Karet with TrkA (FIG. 24a, lane 1), Karet with TrkB (FIG. 24a, lane 3), Karet with TrkC (FIG. 24a, lane 5) and the lack of IP between karet and p75 (FIG. 24b, lane 7).

TrkC = target: T2, TrkC (Homo sapiens, UniProt Q16288); test: Co-immunoprecipitation of Ha Karet with TrkC in Hek cells; format: binding; details: co-transfected Hek cells
T2 construct: expressed in transfected cells; host or cells: Hek cells
Experimental: as §2

TrkA = target: T3, TrkA; test: Tyr phosphorylation of TrkA in PC12 6.24 cells; format: cell-based, human; details: PC12-6.24 cells expressing Karet, anti-phospho-Tyr blot
T3 construct: expressed in transfected cells; host or cells: PC12 6.24 cells (rat PC12 stably overexpressing human TrkA; Hempstead et al., 1992)
T3 sequence (P04629 33-796): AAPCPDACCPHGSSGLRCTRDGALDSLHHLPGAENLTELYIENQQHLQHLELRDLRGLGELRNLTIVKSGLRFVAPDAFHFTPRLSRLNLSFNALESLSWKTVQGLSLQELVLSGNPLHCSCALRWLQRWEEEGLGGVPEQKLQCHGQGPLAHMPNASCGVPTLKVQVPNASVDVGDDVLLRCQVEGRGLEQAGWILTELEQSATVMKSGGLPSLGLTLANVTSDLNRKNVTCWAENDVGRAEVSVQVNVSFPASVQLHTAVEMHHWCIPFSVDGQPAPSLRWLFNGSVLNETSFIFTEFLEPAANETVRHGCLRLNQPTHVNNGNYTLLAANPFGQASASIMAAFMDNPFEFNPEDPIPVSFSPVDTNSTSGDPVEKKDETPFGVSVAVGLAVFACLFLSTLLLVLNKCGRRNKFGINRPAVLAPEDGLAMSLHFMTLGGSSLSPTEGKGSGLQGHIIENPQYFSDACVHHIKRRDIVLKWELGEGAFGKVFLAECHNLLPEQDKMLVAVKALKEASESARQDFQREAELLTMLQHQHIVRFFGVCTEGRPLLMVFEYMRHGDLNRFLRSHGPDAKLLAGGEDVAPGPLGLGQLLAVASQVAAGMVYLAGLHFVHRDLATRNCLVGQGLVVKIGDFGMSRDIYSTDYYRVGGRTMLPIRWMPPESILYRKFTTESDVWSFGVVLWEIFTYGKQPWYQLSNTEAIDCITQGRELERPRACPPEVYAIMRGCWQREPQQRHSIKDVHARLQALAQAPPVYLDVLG

[1] = Hek cells co-transfected with TrkA

Substance	cell morphology (Hek cells; [1])	cell viability (NNR5 cells; NNR5 (TrkA deficient), Karet without TrkA)	reduction in cell survival (NNR5 cells; NNR5 co-transfected with Karet and TrkA, 12 hours after electroporation, percent of control)	decrease in viability (NNR5 cells; NNR5 co-transfected with Karet and TrkA, FACS dead/live kit, 24 hours after transfection)	cell viability (COS cells)	decrease in living cells (Hek cells; HEK cells co-transfected with Karet and TrkA, XTT)	decrease in cell viability (Hek cells; Hek cells co-transfected with EGFR and Karet, XTT)	cell morphology (Hek cells; Hek cells co-transfected with EGFR)	co-immunoprecipitation with TrkB (TrkB)	co-immunoprecipitation with TrkC (TrkC)	phosphorylation of TrkA (TrkA)
Karet F217V: full-length mouse Karet with phenyl alanine at position 217 point mutated to valine	transfection-induced cell death										
Karet: full-length mouse Karet protein (SEQ ID NO:1), PTB domain protein, expressed from pcDNA3 with HA tag	morphology change which is consistent with cell death	no reduction in cell viability	about 20%	13%	no reduction in cell viability	50%	40%	morphology change which is consistent with cell death	co-immunoprecipitated	co-immunoprecipitated	significantly enhanced the phosphorylation of the receptor
